Data: patent publication US7825139B2, “Compounds and methods for selective inhibition of dipeptidyl peptidase-IV” (Forest Laboratories Holdings Limited (BM), priority 2005, dated 2010)

How the values were obtained:
[1] = target: T1, DPP-VII (Homo sapiens, UniProt Q9UHL4); test: DPP-VII IC50 assay (Lys-Pro AMC), selectivity versus DPP-IV; assay type: biochemical; settings: IC50 of DPP-VII divided by IC50 for DPP-IV
T1 construct: The full length cDNAs for human DPP-VII, DPP-VIII, DPP-IX, and FAP were obtained from Open Biosystems; FLAG (N); made in house
Description: (§1) The term “selectivity ratio” refers to the IC50 value generated in a biochemical assay measuring inhibition of DPP-IV compared to the IC50 value generated in a biochemical assay measuring inhibition of another DPP family member (e.g. DPP-VII, DPP-VIII, DPP-IX or FAP) whereby the ratio is obtained by dividing the IC50 value of DPP-VII, DPP-VIII, DPP-IX or FAP by the IC50 value for DPP-IV.
(§2) Materials. S9 insect cells and Sf-900 II SFM media were from Invitrogen. Anti-FLAG M2 immunoaffinity gel was from Sigma. Gly-Pro-AMC, Lys-Pro AMC, and Ala-Pro AMC were from Enzyme Systems. IC50 calculations were performed by non-linear regression analysis using Prism software (GraphPad). Preparation of DPP-VII, DPP-VIII, DPP-IX, and FAP baculovirus constructs. The full length cDNAs for human DPP-VII, DPP-VIII, DPP-IX, and FAP were obtained from Open Biosystems. […] Baculovirus was prepared using the Bac-to-Bac Baculovirus Expression System (Invitrogen). The cDNAs in the final baculovirus constructs were sequence verified. Baculovirus expression. […] Infection with DPP-VII, DPP-VIII, DPP-IX, and FAP baculoviral constructs were all performed at an MOI of 4. The infected cells were grown for 48 hours and the cell pellets harvested and frozen until purification. DPP-VII was purified using anti-FLAG immunoaffinity gel according to the manufacturer's instructions. DPP-VIII, DPP-IX, and FAP were purified using a B-PER 6xHis Fusion Protein Column Purification Kit from Pierce. IC50 assay. Recombinant DPPs were diluted in reaction buffer to give fluorescence values of 5000-20000 counts in the “enzyme only wells” 20 min after addition of substrate at 27° C. Reaction buffers were 25 mM (2-(4-Morpholino)-Ethane Sulfonic Acid), pH 5.5 for DPP-VII, 25 mM Tris, pH 8, 1% Triton X-100, 100 mM NaCl for DPP-VIII, and 25 mM Tris pH 8 for DPP-1× and FAP. Test wells in a 96-well microtiter plate contained 88 μL of diluted DPP and 2.5 ul of titrated compound in 50 mM glycine, pH 2.6. “Enzyme only” wells contained 88 uL of diluted DPP and 2.5 ul of glycine buffer. “No enzyme” wells contained 88 uL of reaction buffer without DPP and 2.5 ul of glycine buffer. All assays were done in triplicate. The plate was incubated at 27° C. for 10 min and then cooled on ice for 10 min. Ten microliters of substrate diluted in reaction buffer (40 uM final concentration) without Triton or NaCl were then added to all wells followed by incubation at 27C for 20 min. Substrates were Lys-Pro AMC for DPP-VII, and Ala-Pro AMC for DPP-VIII, DPP-IX, and FAP. Fluorescence in each well was measured at settings of 380/460 nm.

[2] = target: T2, DPP-VIII (Homo sapiens, UniProt Q6V1X1); test: DPP-VIII IC50 assay (Ala-Pro AMC), selectivity versus DPP-IV; assay type: biochemical; settings: IC50 of DPP-VIII divided by IC50 for DPP-IV
T2 construct: The full length cDNAs for human DPP-VII, DPP-VIII, DPP-IX, and FAP were obtained from Open Biosystems; 6xHis (C); made in house
T2 sequence (Q6V1X1 whole entry): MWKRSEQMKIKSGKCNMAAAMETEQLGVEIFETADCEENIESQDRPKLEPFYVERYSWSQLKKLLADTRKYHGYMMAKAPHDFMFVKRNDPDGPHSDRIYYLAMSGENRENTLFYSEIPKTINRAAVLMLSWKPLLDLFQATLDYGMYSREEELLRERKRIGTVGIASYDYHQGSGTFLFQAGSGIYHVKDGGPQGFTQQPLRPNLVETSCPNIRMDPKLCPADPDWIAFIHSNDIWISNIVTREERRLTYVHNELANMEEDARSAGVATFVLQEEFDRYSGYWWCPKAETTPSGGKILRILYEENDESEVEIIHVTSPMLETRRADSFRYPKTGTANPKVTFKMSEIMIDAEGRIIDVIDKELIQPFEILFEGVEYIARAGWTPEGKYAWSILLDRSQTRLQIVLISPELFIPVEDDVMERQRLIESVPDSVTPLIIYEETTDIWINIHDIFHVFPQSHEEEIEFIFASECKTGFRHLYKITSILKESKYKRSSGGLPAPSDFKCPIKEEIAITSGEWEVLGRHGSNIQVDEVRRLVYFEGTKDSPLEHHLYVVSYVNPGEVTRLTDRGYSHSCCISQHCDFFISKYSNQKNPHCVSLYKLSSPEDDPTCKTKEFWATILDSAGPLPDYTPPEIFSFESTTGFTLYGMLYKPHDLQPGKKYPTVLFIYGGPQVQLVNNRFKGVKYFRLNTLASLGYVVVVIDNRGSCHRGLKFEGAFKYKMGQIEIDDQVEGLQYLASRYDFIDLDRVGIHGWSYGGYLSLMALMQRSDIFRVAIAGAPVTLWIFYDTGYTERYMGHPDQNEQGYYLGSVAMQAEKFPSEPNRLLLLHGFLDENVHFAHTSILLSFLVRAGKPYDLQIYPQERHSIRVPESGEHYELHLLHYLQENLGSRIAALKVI
Description: as §1, §2

[3] = target: T3, FAP (Homo sapiens, UniProt Q12884); test: FAP IC50 assay (Ala-Pro AMC), selectivity versus DPP-IV; assay type: biochemical; settings: IC50 of FAP divided by IC50 for DPP-IV
T3 construct: The full length cDNAs for human DPP-VII, DPP-VIII, DPP-IX, and FAP were obtained from Open Biosystems; 6xHis (N); made in house
T3 sequence (Q12884 1-760): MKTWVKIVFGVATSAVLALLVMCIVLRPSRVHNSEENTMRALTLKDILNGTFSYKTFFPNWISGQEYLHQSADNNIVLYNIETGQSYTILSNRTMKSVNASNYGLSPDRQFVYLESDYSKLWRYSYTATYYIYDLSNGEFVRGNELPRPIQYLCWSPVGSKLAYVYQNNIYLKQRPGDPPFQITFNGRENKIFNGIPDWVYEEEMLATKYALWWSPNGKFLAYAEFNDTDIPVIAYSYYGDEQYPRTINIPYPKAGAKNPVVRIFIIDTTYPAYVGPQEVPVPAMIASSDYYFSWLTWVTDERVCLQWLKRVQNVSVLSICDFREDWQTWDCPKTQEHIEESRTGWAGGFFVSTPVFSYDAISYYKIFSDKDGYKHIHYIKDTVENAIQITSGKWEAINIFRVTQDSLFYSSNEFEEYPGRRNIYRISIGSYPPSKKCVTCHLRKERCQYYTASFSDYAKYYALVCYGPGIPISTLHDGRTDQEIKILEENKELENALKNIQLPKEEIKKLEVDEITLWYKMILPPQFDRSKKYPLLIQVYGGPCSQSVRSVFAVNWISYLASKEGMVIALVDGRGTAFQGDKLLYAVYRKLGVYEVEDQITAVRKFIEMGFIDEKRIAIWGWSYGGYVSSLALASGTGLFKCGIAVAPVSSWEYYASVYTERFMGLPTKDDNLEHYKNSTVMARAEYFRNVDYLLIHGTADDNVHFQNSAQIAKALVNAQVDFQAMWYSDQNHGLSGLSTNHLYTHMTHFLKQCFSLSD
Description: as §1, §2

[4] = test system: Zucker Obese Fatty rats; test: Toxicity in rats, oral dosing; assay type: in vivo, rat; settings: 1 mg/kg, 4-24 hrs post-dose, all Zucker Obese Fatty rats tested
Description: Toxicity in Rats: The Zucker Diabetic Fatty (ZDF) rat model can be used to investigate the effects of the compounds of the invention on both the treatment and prevention of diabetes as rats of this sub-strain are initially pre-diabetic although they develop severe type 2 diabetes characterized by increased HbAl c levels over a period of 6 weeks. The same strain can be used to predict the clinical efficacy of other anti-diabetic drug types. For example, the model predicts the potency and limited clinical efficacy of thiazolidinedione insulin sensitizer compounds. The experimental protocol requires p.o. (oral gavage) administration of either vehicle or test article at indicated doses either QD or BID using a gastric feeding needle with a ball tip, without anesthesia, using hand restraint to adult rats which have been fasted overnight. Animals are monitored for clinical signs at 1, 2, 4 and 8 hour time intervals following the treatment regimen. Whole blood samples (to a maximum level of 10% of the total blood volume every 2 weeks) were collected from the animals from the retro-orbital sinus in accordance with the guidelines of the IACUC committee.
The expected therapeutic dose level could not be reached for the comparative compounds before acute toxicity was observed.

SMILES	Selectivity Ratios DPP-VII [1]	Selectivity Ratios DPP-VIII [2]	Selectivity Ratios FAP [3]	acute toxicity in rats [4]
CS(=O)(=O)N1CC[C@@H](N)[C@H](C(=O)N2CCC[C@H]2B(O)O)C1 [Compound 7, (2R)-1-[(3R,4R)-4-amino-1-methanesulfonyl-piperidine-3-carbonyl]-boroPro-OH]	E (E > 100)	C (10 < C ≦ 50)	E (E > 100)	–
CC(C)[C@H](N)C(=O)N1CCC[C@H]1B(O)O [PT100]	–	–	–	acute toxicity (death)
N[C@@H]1CCN(S(=O)(=O)c2ccc(F)cc2F)C[C@H]1C(=O)N1CCC[C@H]1B(O)O [Compound 11, (2R)-1-[(3R,4R)-4-amino-1-(2,4-difluoro-benzenesulfonyl)-piperidine-3-carbonyl]-boroPro-OH]	E (E > 100)	D (50 < D ≦ 100)	E (E > 100)	–
N[C@@H]1CCN(S(=O)(=O)c2ccccc2F)C[C@H]1C(=O)N1CCC[C@H]1B(O)O [Compound 10, (2R)-1-[(3R,4R)-4-amino-1-(2-fluoro-benzenesulfonyl)-piperidine-3-carbonyl]-boroPro-OH]	E (E > 100)	C (10 < C ≦ 50)	D (50 < D ≦ 100)	–
N[C@@H]1CCN(S(=O)(=O)c2cc(F)c(F)cc2F)C[C@H]1C(=O)N1CCC[C@H]1B(O)O [Compound 12, (2R)-1-[(3R,4R)-4-amino-1-(2,4,5-trifluoro-benzenesulfonyl)-piperidine-3-carbonyl]-boroPro-OH]	C (10 < C ≦ 50)	C (10 < C ≦ 50)	C (10 < C ≦ 50)	–
N[C@@H]1CCN(S(=O)(=O)c2ccccc2)C[C@H]1C(=O)N1CCC[C@H]1B(O)O [Compound 6, (2R)-1-[(3R,4R)-4-amino-1-Benzenesulfonyl-piperidine-3-carbonyl]-boroPro-OH]	E (E > 100)	D (50 < D ≦ 100)	E (E > 100)	–
N[C@@H]1CCN(S(=O)(=O)c2ccc(F)cc2)C[C@H]1C(=O)N1CCC[C@H]1B(O)O [Compound 8, (2R)-1-[(3R,4R)-4-amino-1-(4-fluoro-benzenesulfonyl)-piperidine-3-carbonyl]-boroPro-OH]	E (E > 100)	D (50 < D ≦ 100)	D (50 < D ≦ 100)	–
N[C@@H]1CCN(S(=O)(=O)c2cccc(F)c2)C[C@H]1C(=O)N1CCC[C@H]1B(O)O [Compound 9, (2R)-1-[(3R,4R)-4-amino-1-(3-fluoro-benzenesulfonyl)-piperidine-3-carbonyl]-boroPro-OH]	E (E > 100)	D (50 < D ≦ 100)	D (50 < D ≦ 100)	–

Second part, led by results:

Selectivity Ratios DPP-VII [1]	Selectivity Ratios DPP-VIII [2]	Selectivity Ratios FAP [3]	SMILES	acute toxicity in rats [4]
C (10 < C ≦ 50)	E (E > 100)	C (10 < C ≦ 50)	N[C@@H]1CCN(S(=O)(=O)c2cccc(-c3ccccc3)c2)C[C@H]1C(=O)N1CCC[C@H]1B(O)O [Compound 17, (2R)-1-[(3R,4R)-4-amino-1-(biphenyl-3-sulfonyl)-piperidine-3-carbonyl]-boroPro-OH]	–
C (10 < C ≦ 50)	C (10 < C ≦ 50)	C (10 < C ≦ 50)	N[C@@H]1CN(S(=O)(=O)c2cccc3ccccc23)CC[C@H]1C(=O)N1CCC[C@H]1B(O)O [Compound 14, (2R)-1-[(3R,4R)-4-amino-1-(naphthalene-1-sulfonyl)-piperidine-3-carbonyl]-boroPro-OH]	–
A (A ≦ 1)	B (1 < B ≦ 10)	C (10 < C ≦ 50)	Cl.O=C(CN[C@@H]1CCCNC1)N1CCC[C@H]1B(O)O [Compound 21, reference compound]	–
C (10 < C ≦ 50)	C (10 < C ≦ 50)	D (50 < D ≦ 100)	CC(C)S(=O)(=O)N1CC[C@@H](N)[C@H](C(=O)N2CCC[C@H]2B(O)O)C1 [Compound 18, (2R)-1-[(3R,4R)-4-amino-1-(propane-2-sulfonyl)-piperidine-3-carbonyl]-boroPro-OH]	–
E (E > 100)	D (50 < D ≦ 100)	E (E > 100)	CS(=O)(=O)c1ccc(S(=O)(=O)N2CC[C@@H](N)[C@H](C(=O)N3CCC[C@H]3B(O)O)C2)cc1 [Compound 13, (2R)-1-[(3R,4R)-4-amino-1-(4-methanesulfonyl-benzenesulfonyl)-piperidine-3-carbonyl]-boroPro-OH]	–
A (A ≦ 1)	B (1 < B ≦ 10)	E (E > 100)	O=C(CNC1CCNCC1)N1CCC[C@H]1B(O)O [Compound 20, reference compound]	–
E (E > 100)	E (E > 100)	C (10 < C ≦ 50)	N[C@@H]1CCN(S(=O)(=O)c2ccc(-c3ccccc3)cc2)C[C@H]1C(=O)N1CCC[C@H]1B(O)O [Compound 16, (2R)-1-[(3R,4R)-4-amino-1-(biphenyl-4-sulfonyl)-piperidine-3-carbonyl]-boroPro-OH]	–
